Test results from patent US7160992B2, “Amino-modified polysaccharides and methods of generating and using same” (Yeda Research and Development Co., Ltd., priority 2003, dated 2007).

Assays:
CCR5 = target: T1, CCR5 (Homo sapiens, UniProt P51681); conditions: PHA stimulated peripheral blood lymphocytes; cited from earlier work
T1 construct: in PHA stimulated peripheral blood lymphocytes (PBL); host or cells: PHA stimulated peripheral blood lymphocytes (PBL)

CD4 = target: T2, CD4 (Homo sapiens, UniProt P01730); conditions: PHA stimulated peripheral blood lymphocytes; cited from earlier work
T2 construct: in PHA stimulated peripheral blood lymphocytes (PBL); host or cells: PHA stimulated peripheral blood lymphocytes (PBL)

[1] = test system: lymphocytes, PBMC and neurons; conditions: cited from earlier work
HIV-1IIIB wild type = assay: Inhibition of HIV-1IIIB wild type in MT2 or cMAGI cells; assay type: cell-based; conditions: HIV-1IIIB wt; mean and standard deviation of three separate experiments; read-out: EC50, Wild-type
Source text: The cMAGI assay is based on the ability of HIV-1 TAT to transactivate the expression of an integrated β-galactosidase reporter gene driven by the HIV-LTR [Chackerian, B. et al., 1997. J Virol. 71: 3932–3939; Collins, K. B. et al., 2000. Nat. Med. 6: 475–479]. The β-galactosidase reporter has been modified to remain localized in the nucleus where it can be detected with the X-gal substrate as an intense nuclear stain within a few days of infection. The X-gal substrate used was 5-bromo-4-chloro-3-indoyl-beta-D-galactopyranoside. HIV1IIIB was propagated by subculture in MT2 as described previously [Litovchick (2001) Supra]. Aliquots of cell-free culture supernatants were used as viral inoculum. […] The cytopathic effects of the viral infection of MT2 cells were analyzed by microscopic assessment of syncytium formation. These latter data were obtained by analysis of duplicate samples by two independent observers. HIV-1 infection of cMAGI cells was determined by counting the number of HIV-1 infected cells (stained blue).

HIV-1 isolates = assay: Inhibition of HIV-1 infection (cMAGI reporter cells, MT2 syncytium formation); assay type: cell-based; conditions: up to 100 μM
Description: Aliquots of cell-free culture supernatants were used as viral inoculum. […] Cytotoxicity determinations were carried out in MT2 and H9 cells by trypan blue exclusion assay.
Viral inhibition was determined by incubating cMAGI HIV-1 reporter cells with 0.2–0.5 multiplicity of infection of HIV-1IIIB for 4 days at 37° C. in the presence or absence of various concentration of AACs, prior to counting the number of HIV-1 infected cells (stained blue). The cytopathic effects of the viral infection of MT2 cells were also analyzed by microscopic assessment of syncytium formation. These latter data were obtained by analysis of duplicate samples by two independent observers.

CXCR4 = target: T3, CXCR4 (Homo sapiens, UniProt P61073); assay: Inhibition of anti-CXCR4 mAb 12G5 binding to cells, flow cytometry; assay type: cell-based; conditions: for inhibition of 12G5 mAb binding to CXCR4 (in words): 20 μM aminoglycoside antibiotic
T3 construct: endogenous in cells; host or cells: PM1 cells and PBMC
Description: FIGS. 11a–d are graphs depicting the binding of AACs to CXCR4 in the presence of anti CXCR4 antibody (12G5). PM1 cells were incubated with PE-conjugated isotype control mAb, PE-anti CXCR4 conjugated mAb (12G5) alone, or in the presence of the indicated AACs for 30 min at 4° C. The cells were then washed twice with PBS and analyzed by flow cytometry. The MFI values are shown in parenthesis.
Interaction of AACs with CXCR4 was determined by flow cytometry (FACScan, Becton Dickinson) as described recently (Litovchick et al., 2001, supra). Briefly, 0.5×10^6 cells were washed in ice-cold PBS containing 0.1% sodium azide (wash buffer) and incubated at 4° C. with anti-CXCR4 mAb, 12G5 (PharMingen, San Diego, Calif.) conjugated to phycoerithrine (PE), in the absence or presence of different concentrations of the AACs. After 30 min of incubation, the cells were washed with ice-cold wash buffer and fixed in PBS containing 1% paraformaldehyde. Non-specific fluorescence was assessed by using isotype-matched control. For each sample 10,000 events were acquired. Data were analyzed and processed using CellQuest™ software (Becton Dickinson).

RRE IIB RNA = assay: Fluorescence anisotropy: RhdRev binding and AAC competition for RRE IIB RNA; design: species or system HIV-1
TAR RNA = assay: Fluorescence anisotropy: RhdRev binding and AAC competition for TAR RNA; design: species or system HIV-1
MT-2 cells = assay: Cellular uptake competition of AACs with NeoR6-FITC, flow cytometry; assay type: cell-based; conditions: 100 fold excess of non-labeled AAC
Description: Following 15 minutes of incubation at room temperature, the cells were washed twice with ice-cold PBS and fixed in PBS containing 1% paraformaldehyde. Fluorescence was analyzed using flow cytometry.
After 5 or 15 min of incubation at room temperature, the cells were washed twice with ice-cold PBS and fixed in PBS containing 1% paraformaldehyde. The fluorescence was then analyzed by flow cytometry (FACScan, Becton Dickinson Imunocytometry Systems, San Jose, Calif., USA). For each sample 10,000 events were acquired. Data were analyzed and processed.

T3 sequence (P61073 whole entry): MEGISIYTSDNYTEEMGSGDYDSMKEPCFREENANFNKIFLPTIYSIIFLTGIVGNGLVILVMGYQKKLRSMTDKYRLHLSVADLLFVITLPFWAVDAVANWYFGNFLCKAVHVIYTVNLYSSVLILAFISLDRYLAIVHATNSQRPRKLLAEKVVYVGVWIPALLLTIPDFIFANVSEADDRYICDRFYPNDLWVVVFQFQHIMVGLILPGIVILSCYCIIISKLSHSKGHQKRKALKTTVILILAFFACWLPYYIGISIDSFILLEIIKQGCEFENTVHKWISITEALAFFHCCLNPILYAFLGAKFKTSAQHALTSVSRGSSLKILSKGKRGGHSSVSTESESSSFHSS
T1 sequence (P51681 whole entry): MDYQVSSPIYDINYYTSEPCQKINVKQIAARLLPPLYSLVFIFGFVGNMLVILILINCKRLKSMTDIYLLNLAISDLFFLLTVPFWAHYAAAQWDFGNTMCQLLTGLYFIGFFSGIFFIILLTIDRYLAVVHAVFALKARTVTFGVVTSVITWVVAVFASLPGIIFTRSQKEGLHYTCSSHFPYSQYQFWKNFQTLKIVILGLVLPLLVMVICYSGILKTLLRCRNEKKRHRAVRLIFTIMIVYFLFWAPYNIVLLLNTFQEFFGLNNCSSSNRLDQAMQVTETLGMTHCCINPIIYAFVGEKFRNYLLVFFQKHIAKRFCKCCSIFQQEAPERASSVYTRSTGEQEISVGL

## NC(N)=NCCC[C@H](N)C(=O)NC[C@H]1O[C@H](O[C@H]2C(O)[C@@H](O[C@H]3O[C@H](CO)[C@@H](O)[C@H](NC(=O)[C@@H](N)CCCN=C(N)N)[C@H]3O)[C@H](NC(=O)[C@@H](N)CCCN=C(N)N)C[C@@H]2NC(=O)[C@@H](N)CCCN=C(N)N)[C@H](O)[C@@H](O)[C@@H]1O (stereo partly shown) [R4K]
CCR5
  inhibition of binding of 2D7, a mAb directed to CCR5: neither R3G nor R4K or NeoR6 inhibit the binding
CD4
  inhibition of binding of anti CD4 antibody (Leu 3a): neither R3G nor R4K or NeoR6 inhibit the binding
[1]
  accumulation in cells: accumulate in different cell types

## Nc1ccn([C@H]2CC[C@@H](CO)O2)c(=O)n1 [ddC, Dideoxycytosine, reference compound]
HIV-1IIIB wild type
  EC50: 0.3 ± 0.1 µM

## NC[C@H]1O[C@H](O[C@H]2[C@H](O)[C@@H](O)[C@H](N)C[C@@H]2N)[C@H](N)[C@@H](O)[C@@H]1O [neamine, reference compound]
HIV-1 isolates
  antiviral activity (in words): did not reveal antiviral activity
CXCR4
  inhibition of 12G5 mAb binding to CXCR4 (in words): did not inhibit

## NC[C@@H]1O[C@H](O[C@H]2[C@@H](O)[C@H](O[C@@H]3[C@@H](O)[C@H](N)C[C@H](N)[C@H]3O[C@H]3O[C@H](CO)[C@@H](O)[C@H](O)[C@H]3N)O[C@@H]2CO)[C@H](N)[C@@H](O)[C@@H]1O [paromomycin, reference compound]
HIV-1 isolates
  antiviral activity (in words): did not reveal antiviral activity
CXCR4
  inhibition of 12G5 mAb binding to CXCR4 (in words): did not inhibit

## argininamido-neomycin B conjugate [NeoR1]
RRE IIB RNA; competition of AACs with RhdRev (10 nM) for RRE IIB RNA (20 nM) binding, 85 mM NaCl
  Kd: 0.2 ± 0.0059 µM
RRE IIB RNA; competition of AACs with RhdRev for RRE IIB RNA binding
  IC50: 0.353 ± 0.0319 µM
TAR RNA; competition of AACs with RhdRev (10 nM) for TAR RNA (20 nM) binding, 85 mM NaCl
  Kd: > 0.5 µM
TAR RNA; competition of AACs with RhdRev for TAR RNA binding
  IC50: > 0.5 µM
CXCR4; 10 μM AAC, PM1 cells, 30 min at 4° C.
  reduction of 12G5 mAb binding to the cells: 50%
CXCR4; in comparison to NeoR6
  inhibition of mAb 12G5 or SDF-1α binding to CXCR4, % of the NeoR6 activity: 55%
MT-2 cells
  competition with NeoR6-FITC uptake (in words): did not compete

## gentamicin
HIV-1 isolates
  antiviral activity (in words): did not reveal antiviral activity
